Laboratory results taken from PMC4556614 (PLoS ONE, 2015).
Like-named read-outs stand apart in the source and are kept apart here.

Key:
OCT2 [1] = target: T1, OCT2 (Homo sapiens, UniProt O15244); assay: Inhibition of OCT2-mediated [14C]metformin uptake in HEK-OCT2 cells; details: for inhibition at 3 min, 20 µM / inhibition at 3 min, 200 µM: pH 7.3, probe [14C]metformin, 1000 µM, metformin 1000 μM, net uptake HEK-OCT2 minus HEK-VC; for inhibition at 3 min, 20 µM: % Inhibition of OCT2-dependent MF uptake at 20 µM (mean ± SEM), test drug 20 µM; for inhibition at 3 min, 200 µM: % Inhibition of OCT2-dependent MF uptake at 200 µM (mean ± SEM), test drug 200 µM
OCT2 [2] = target: T1, OCT2; assay: Inhibition of OCT2-mediated [3H]MPP+ uptake in HEK-OCT2 cells; details: for inhibition at 3 min, 20 µM / inhibition at 3 min, 200 µM: pH 7.3, probe [3H]MPP+, 50 µM
[3] = test drug 20 µM, MPP+ 50 μM, 3 min, net uptake HEK-OCT2 minus HEK-VC
[4] = test drug 200 µM, MPP+ 50 μM, 3 min, net uptake HEK-OCT2 minus HEK-VC

T1 sequence (O15244 whole entry): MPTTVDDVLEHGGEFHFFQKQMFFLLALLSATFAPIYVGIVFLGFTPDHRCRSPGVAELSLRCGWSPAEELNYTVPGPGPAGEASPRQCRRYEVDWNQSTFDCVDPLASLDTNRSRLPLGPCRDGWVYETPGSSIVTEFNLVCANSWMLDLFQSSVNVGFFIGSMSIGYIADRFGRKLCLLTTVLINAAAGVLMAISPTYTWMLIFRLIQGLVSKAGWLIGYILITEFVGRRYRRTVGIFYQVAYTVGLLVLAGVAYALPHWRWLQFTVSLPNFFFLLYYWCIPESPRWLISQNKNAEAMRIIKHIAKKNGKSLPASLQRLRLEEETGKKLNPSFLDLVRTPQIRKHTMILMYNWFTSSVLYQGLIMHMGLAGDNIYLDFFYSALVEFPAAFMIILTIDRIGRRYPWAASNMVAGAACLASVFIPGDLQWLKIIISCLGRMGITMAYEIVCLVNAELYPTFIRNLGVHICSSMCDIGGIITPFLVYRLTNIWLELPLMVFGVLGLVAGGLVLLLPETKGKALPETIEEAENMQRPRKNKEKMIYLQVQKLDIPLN

| Structure (SMILES) | % Inhibition of OCT2-dependent MF uptake at 20 µM (mean ± SEM) (OCT2 [1]; human, pH 7.3) | % Inhibition of OCT2-dependent MF uptake at 200 µM (mean ± SEM) (OCT2 [1]; human, pH 7.3) | % Inhibition of OCT2-dependent MPP+ uptake at 20 µM (mean ± SEM) (OCT2 [2]; [3]) [%] | % Inhibition of OCT2-dependent MPP+ uptake at 200 µM (mean ± SEM) (OCT2 [2]; [4]) [%] | further results |
| --- | --- | --- | --- | --- | --- |
| COC(=O)C1=C(C)NC(C)=C(C(=O)OC(C)(C)CN(C)CCC(c2ccccc2)c2ccccc2)C1c1cccc([N+](=O)[O-])c1 (stereo not drawn) [Lercanidipine] |  |  |  |  | inhibition at 3 min, 20 µM (OCT2 [1]; human): 7.8 ± 3.8%; inhibition at 3 min, 200 µM (OCT2 [1]; human): -20.4 ± 11.1%; inhibition at 3 min, 20 µM (OCT2 [2]; human): -13.3 ± 8.6%; inhibition at 3 min, 200 µM (OCT2 [2]; human): -9.3 ± 3.6% |
| N[C@@H](Cc1ccc(O)c(O)c1)C(=O)O [Levodopa] | -9.3 ± 6.8 | 67.3 ± 2.6 | -24.6 ± 0.5 | 11.8 ± 1.4 |  |
| N[C@@H](Cc1cc(I)c(Oc2cc(I)c(O)c(I)c2)c(I)c1)C(=O)O [Levothyroxine] |  |  |  |  | inhibition at 3 min, 20 µM (OCT2 [1]; human): 0.8 ± 9.6%; inhibition at 3 min, 200 µM (OCT2 [1]; human): 14.3 ± 15.2%; inhibition at 3 min, 20 µM (OCT2 [2]; human): 3.6 ± 4.1%; inhibition at 3 min, 200 µM (OCT2 [2]; human): -3.3 ± 10.3% |
| NCCCC[C@H](N[C@@H](CCc1ccccc1)C(=O)O)C(=O)N1CCC[C@H]1C(=O)O [Lisinopril] | -10.3 ± 12.9 | 2.9 ± 9.0 | 16.0 ± 9.0 | 9.8 ± 11.8 |  |
| [Li] [Lithium] |  |  | -28.4 ± 7.5 | -36.7 ± 9.7 | % Inhibition of OCT2-dependent MF uptake at 20 µM (mean ± SEM) (OCT2 [1]): -15.2 ± 7.9; % Inhibition of OCT2-dependent MF uptake at 200 µM (mean ± SEM) (OCT2 [1]): -14.7 ± 6.8 |
| O=C1Nc2ccc(Cl)cc2C(c2ccccc2Cl)=NC1O (stereo not drawn) [Lorazepam] | 32.0 ± 2.2 | 96.5 ± 1.0 | 0.3 ± 5.1 | 17.7 ± 7.3 |  |
| CN1C(=O)C(O)N=C(c2ccccc2Cl)c2cc(Cl)ccc21 (stereo not drawn) [Lormetazepam] | 77.0 ± 0.6 | 92.4 ± 0.5 |  |  | % Inhibition of OCT2-dependent MPP+ uptake at 20 µM (mean ± SEM) (OCT2 [2]; human, pH 7.3): 47.8 ± 8.4; % Inhibition of OCT2-dependent MPP+ uptake at 200 µM (mean ± SEM) (OCT2 [2]; human, pH 7.3): 69.8 ± 5.3 |
| CCCCc1nc(Cl)c(CO)n1Cc1ccc(-c2ccccc2-c2nn[nH]n2)cc1 [Losartan] | -9.3 ± 10.4 | 7.4 ± 8.2 | -41.8 ± 8.1 | -59.5 ± 6.1 |  |
| CC1CCN(CCCC(=O)c2ccc(F)cc2)CC1 [Melperone] | 75.0 ± 3.4 | 94.9 ± 4.2 | 8.6 ± 10.1 | 69.7 ± 3.8 |  |
| CC12CC3CC(C)(C1)CC(N)(C3)C2 [Memantine] | 54.0 ± 2.1 | 93.9 ± 0.6 | 20.6 ± 8.6 | 54.0 ± 7.0 |  |
| Nc1ccc(O)c(C(=O)O)c1 [Mesalazine] | 21.6 ± 11.1 | 59.8 ± 6.7 | -51.3 ± 6.1 | -68.0 ± 8.5 |  |
| Cc1c(N(C)CS(=O)(=O)O)c(=O)n(-c2ccccc2)n1C [Metamizole] | -4.8 ± 6.4 | 8.4 ± 9.8 | -31.6 ± 6.0 | -39.1 ± 5.1 |  |
